From patent US20240335439A1, “USE OF AND METHOD FOR TELAPREVIR IN PREPARATION OF DRUG FOR TREATING AN ISCHEMIA/REPERFUSION INJURY AND CYTOPROTECTIVE DRUG” (THE THIRD XIANGYA HOSPITAL OF CENTRAL SOUTH UNIVERSITY, priority 2021, published 2024)

What was measured:
SH-SY5Y nerve cells [1] = experiment: NMDA induced nerve cell injury model of SH-SY5Y cells, MTS viability; assay type: cell-based; settings: 1 mM NMDA 30 minutes, then 24 h culture; telaprevir 1, 5, 10 μM; FIG. 5C
Method: SH-SY5Y nerve cells were purchased from the Xiangya Cell Bank of Central South University.
Cell culture method: Following a conventional cell culture method, the above SH-SY5Y nerve cells were cultured in an RPMI 1640 medium (containing 20% of fetal bovine serum). When the cells fused and grew to 80-90%, the cells were digested with a trypsin. After the cells shrank and became round and the intercellular space was obvious, the digestion was immediately terminated with a medium, the cells were dispersed and blown evenly into a single suspension state, passaged in bottles, and cultured in a 37° C. cell incubator containing 5% of CO2.
The SH-SY5Y cells at the fusion rate of 80-90% or more can be seeded on plates. […]
Cell viability was detected by MTS.
The measurement followed the operating instructions of a commercially available MTS kit (Promega (Beijing) Biotech Co., Ltd.). […] The absorbance of the cells at 490 nm was measured by enzyme-linked immunosorbent assay (the absorbance was controlled at 0.7-1.2), where the absorbance value reflected relative cell viability. Calculation: cell viability (%)=absorbance of the drug group/absorbance of the control group×100%. When the absorbance value of each group was calculated, the absorbance value of the background blank control group was first subtracted.

SH-SY5Y nerve cells [2] = experiment: Hypoxia/reoxygenation injury of SH-SY5Y nerve cells, MTS viability and LDH release; assay type: cell-based; settings: hypoxia 8 h / reoxygenation 24 h, telaprevir 1, 5, 10 μM, vs Hypoxia
Method: The measurement followed the operating instructions of a commercially available lactate dehydrogenase kit (Shanghai Beyotime Biotechnology Co., Ltd., China). Groups were designed according to experimental requirements, and a background blank control group (without cells) and a maximum enzyme release group were additionally set. An LDH release reagent in a volume of 1/10 of the original medium was added to the maximum enzyme activity well group of the sample, and the culture continued for 1 hour. 120 μL of supernatant was pipetted from each well and added to a new 96-well plate, and 60 μL of LDH detection working solution was added to each well, followed by uniform mixing and incubation at room temperature for 30 minutes (in dark). The absorbance of the sample was measured at 490 nm. Calculation: LDH release rate of cells (%)=(absorbance of the drug treatment group-absorbance of the control group)/(absorbance of the maximum enzyme release group-absorbance of the control group)×100%. When the absorbance value of each group was calculated, the absorbance value of the background blank control group was first subtracted.
SH-SY5Y nerve cells were purchased from the Xiangya Cell Bank of Central South University. […]
Cell viability was detected by MTS and cell injury was detected by an LDH release rate. […]

CCC[C@H](NC(=O)[C@@H]1[C@H]2CCC[C@H]2CN1C(=O)[C@@H](NC(=O)[C@@H](NC(=O)c1cnccn1)C1CCCCC1)C(C)(C)C)C(=O)C(=O)NC1CC1 [telaprevir]
cell viability (MTS) of NMDA treated SH-SY5Y cells (SH-SY5Y nerve cells [1]): significantly inhibit a decrease | cell viability (MTS) of hypoxia/reoxygenation treated SH-SY5Y cells (SH-SY5Y nerve cells [2]; FIG. 5A): significantly inhibit a decrease | LDH release rate of hypoxia/reoxygenation treated SH-SY5Y cells (SH-SY5Y nerve cells [2]; FIG. 5B): significantly inhibit
